Test results: patent publication US20030065039A1, “Biologically active 1,3-bis-aromatic-prop-2-en-1-ones, 1,3-bis-aromatic-propan-1-ones, and 1,3-bis-aromatic-prop-2-yn-1-ones” (Statens Serum Institute, priority 1997, published 2003)
Read-outs that look alike come from different tables or passages of the source.

Experiments:
[1] = biological target: T1, Helicobacter pylori fumarate reductase (Helicobacter pylori, UniProt O06913); assay type: biochemical
T1 construct: Membrane associated proteins were solubilized from the pellet in 150 mM KCl, pH 7.0; endogenous in cells; host or cells: Helicobacter pylori 007 strain; KCl-solubilised fraction (or sonicate supernatant)
T1 sequence (O06913 1-714): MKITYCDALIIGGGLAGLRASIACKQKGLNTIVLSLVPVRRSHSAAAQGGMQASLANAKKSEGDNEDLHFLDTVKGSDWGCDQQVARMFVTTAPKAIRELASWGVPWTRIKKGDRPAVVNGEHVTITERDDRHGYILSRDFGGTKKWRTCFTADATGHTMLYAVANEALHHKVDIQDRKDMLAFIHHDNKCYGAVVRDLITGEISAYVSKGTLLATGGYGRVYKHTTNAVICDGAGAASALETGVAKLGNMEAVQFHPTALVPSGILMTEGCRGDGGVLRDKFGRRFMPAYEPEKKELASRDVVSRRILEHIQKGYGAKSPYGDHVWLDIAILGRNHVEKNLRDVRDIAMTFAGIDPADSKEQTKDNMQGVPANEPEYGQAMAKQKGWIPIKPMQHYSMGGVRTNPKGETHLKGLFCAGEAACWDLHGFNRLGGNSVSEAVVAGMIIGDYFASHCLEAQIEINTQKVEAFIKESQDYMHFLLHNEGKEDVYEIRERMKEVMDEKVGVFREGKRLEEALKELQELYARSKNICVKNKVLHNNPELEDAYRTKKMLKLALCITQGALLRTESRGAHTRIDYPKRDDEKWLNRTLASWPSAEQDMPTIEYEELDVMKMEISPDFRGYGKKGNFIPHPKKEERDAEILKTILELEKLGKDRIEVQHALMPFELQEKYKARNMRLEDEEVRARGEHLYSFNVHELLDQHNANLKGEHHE
T1 sequence (O06914 1-245 partner): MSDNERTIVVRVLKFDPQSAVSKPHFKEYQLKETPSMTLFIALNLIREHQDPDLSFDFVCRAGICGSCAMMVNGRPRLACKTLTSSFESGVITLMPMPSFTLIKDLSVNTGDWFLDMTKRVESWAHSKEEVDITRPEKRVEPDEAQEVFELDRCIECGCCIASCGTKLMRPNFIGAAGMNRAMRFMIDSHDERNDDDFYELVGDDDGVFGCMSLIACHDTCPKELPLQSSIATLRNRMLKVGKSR
T1 sequence (O06912 1-255 partner): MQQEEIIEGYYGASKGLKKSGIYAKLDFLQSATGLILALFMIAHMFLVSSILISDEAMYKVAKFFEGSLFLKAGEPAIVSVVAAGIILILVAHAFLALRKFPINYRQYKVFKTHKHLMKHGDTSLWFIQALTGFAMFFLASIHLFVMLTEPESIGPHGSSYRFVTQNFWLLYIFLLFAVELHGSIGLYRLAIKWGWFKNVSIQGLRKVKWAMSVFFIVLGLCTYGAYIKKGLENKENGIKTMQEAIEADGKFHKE
Experimental: 1) Extraction of soluble FRD: Bacteria were harvested by centrifugation at 18,000 g for 10 min at 4° C., and were washed 2 times in an isotonic phosphate saline buffer (50 mM sodium phosphate, pH 7.2, 90 mM NaCl, 5 mM Kcl). Bacteria were lysed in 5 mM Tris-HCl, pH 7.4, for 15 minutes, and centrifuged 18,000 g for 10 minutes. Membrane associated proteins were solubilized from the pellet in 150 mM KCl, pH 7.0, in ice bath for 60 min, and then the supernatant was collected after centrifugation (18,000 g for 10 minutes) for the measurement of FRD activity.
2) Extraction of FRD by sonication: Bacteria were harvested by centrifugation at 18,000 g for 10 min at 4° C., were sonicated, and then the supernatant was collected after centrifugation (18,000 g for 10 minutes) for the measurement of FRD activity.
NADH-FRD activity was determined as the rate of NADH-oxidation upon addition of 1 mM fumarate in the KCl-solubilized fraction or sonicated fraction. The reaction was monitored spectrophotometrically at 340 nm (∈=6.2 mM^−1 cm^−1) using 100 μM NADH and usually 3 mg protein in both reference and sample cuvettes. The measurement was carried out in a Shimadzu UV-190 double-beam spectrophotometer. Protein concentrations were determined using a Bio-Rad protein assay (Bio-Rad Laboratories, 200 Alfred Nobel Dr. Hercules, Calif. 94547, USA).
KCl solubilised fraction of bacteria was incubated with different concentrations of various oxygenated chalcones at 28° C. and the remaining FRD activity was measured. The IC50 values were determined as the concentration at which 50% of the activity was inhibited.

[2] = biological target: T2, succinate dehydrogenase of Helicobacter pylori (Helicobacter pylori, UniProt O06913); assay type: biochemical
T2 construct: endogenous in cells; host or cells: Helicobacter pylori (preparation for the SDH measurement not described; sonicate mentioned for FRD)
T2 sequence (O06913 1-714): T1 sequence (O06913 1-714)
T2 sequence (O06914 1-245 partner): T1 sequence (O06914 1-245 partner)
T2 sequence (O06912 1-255 partner): T1 sequence (O06912 1-255 partner)

[3] = Preliminary 14 days oral toxicity study in rats; assay type: in vivo; conditions: highest dose level 1000 mg/kg/day
Experimental: A preliminary 14 days oral toxicity study in rats was carried out with 6 compounds. Observations included clinical signs, body weights, food intake, haematology, clinical chemistry and macroscopic pathology.

Vero cell cultures = experiment: Cytotoxicity in Vero cell cultures; assay type: cell-based; conditions: Vero cells; values given as fractions, footnote a not given
Text: (§1) In the following is reported the results from a Vero cell culture infected with different viruses. The cell culture used as well as the methods applied are well known to a person skilled in the art.

Coxsackie virus B4 = experiment: Antiviral activity in Vero cell cultures; assay type: cell-based; conditions: Vero cells; values given as fractions
Experimental: (§2) IC50 values are determined by the virus plaque formation and/or the virus cytopathic assay using standard methods well-known in the art.
as §1

Parainfluenza-3 Virus = experiment: Antiviral activity in Vero cell cultures; assay type: cell-based; conditions: Vero cells; values given as fractions
Experimental: as §2, §1

Reovirus-1 = experiment: Antiviral activity in Vero cell cultures; assay type: cell-based; conditions: Vero cells; values given as fractions
Experimental: as §2, §1

Simliki forest virus = experiment: Antiviral activity in Vero cell cultures; assay type: cell-based; conditions: Vero cells; values given as fractions
Experimental: as §2, §1

Sindbis virus = experiment: Antiviral activity in Vero cell cultures; assay type: cell-based; conditions: Vero cells; values given as fractions
Experimental: as §2, §1

[4] = test system: cytomegalovirus AD-169 strain; experiment: Activity against cytomegalovirus in HEL cells (plaque formation); assay type: cell-based; conditions: virus plaque formation reduced by 50%, 100 PFU, values given as fractions
Experimental: as §2

[5] = test system: cytomegalovirus Davis strain; experiment: as above; assay type: cell-based; conditions: virus plaque formation reduced by 50%, 100 PFU, values given as fractions
Experimental: as §2

[6] = test system: human embryonic lung (HEL) cells; experiment: Cytotoxicity in human embryonic lung (HEL) cells; assay type: cell-based; conditions: HEL cell growth reduced by 50%; values given as fractions
Leishmania promastigotes = Leishmania promastigotes Assay; assay type: cell-based; conditions: Leishmania; promastigotes, 3H-thymidine uptake; read-out: Leishmania IC50 ± SD
In short: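 L. major (WHO Iran vaccine strain) and L. donovani MHOM/KE/85/NLB 274 promastigotes (3×10^6/ml, day 3 and 6 cultures) exposed to compound 2 h at 26 °C, then 3H-thymidine 18 h; incorporation counted by scintillation. Microscopic counts and flagellar motility also assessed.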

human lymphocytes = experiment: Lymphocyte Proliferation Assay; assay type: cell-based; conditions: Lymphocyte; PHA provoked proliferation of human lymphocytes; read-out: Lymphocytes IC50 ± SD
In short: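 Ficoll-isolated human blood mononuclear cells (0.63×10^5/ml) in RPMI 1640 with 5% FCS were cultured in triplicate with test compound and PHA or PPD for 3 or 7 days. Proliferation measured by ^3H-thymidine incorporation over the final 24 h; triplicate median recorded.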

Plasmodium falciparum = Plasmodium falciparum Assay; assay type: cell-based; conditions: Plasmodium falciparum; 3-H-hypoxanthine incorporation, 48 hours; read-out: Plasmodium IC50 ± SD
In short: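 Parasitized erythrocytes (~1% parasitemia, 5×10^8/ml) cultured 48 h in RPMI with test compound, with 3H-hypoxanthine added for the last 24 h. Growth inhibition read as 3H-hypoxanthine incorporation into parasite DNA by liquid scintillation; uninfected and untreated infected cultures run in parallel.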

mouse lymphoma tk = experiment: Mouse lymphoma tk assay
Text: Following selection of SBC-35ma (3,5-dimethoxy-4′-allyloxychalcone) as a development candidate, this compound was studied in vitro using the chromosomal aberration assay with CHO cells and the mouse lymphoma tk assay.
In the screening design, three known drugs were included, namely chloroquine, pyrimethamine and artesunate.

| Compound | activity of succinate dehydrogenase [2] | toxic effects [3] | IC50 (Leishmania promastigotes) [µM] | IC50 (human lymphocytes) [µM] | IC50 (Plasmodium falciparum) [µM] | further results |
| --- | --- | --- | --- | --- | --- | --- |
| antimycin [reference compound] | could no inhibit it |  |  |  |  | activity of NADH-fumarate reductase [1]: could not inhibit it |
| malonate | concentration-dependent inhibitory effect |  |  |  |  |  |
| C=CCOc1ccc(C(=O)/C=C/c2ccc(OC)c(OC)c2)cc1 [34m4′ac, 3,4-dimethoxy-4′-allyloxychalcone] |  | No toxic effects | 60 ± 5 | 51 ± 6 | 32 | Minimum Cytotoxic Concentration (Vero cell cultures): <1/100; Minimum inhibitory concentration, Coxsackie virus B4 (Coxsackie virus B4): 1/60000; Minimum inhibitory concentration, Parainfluenza-3 Virus (Parainfluenza-3 Virus): 1/6000; Minimum inhibitory concentration, Reovirus-1 (Reovirus-1): <1/100; Minimum inhibitory concentration, Simliki forest virus (Simliki forest virus): 1/2000; Minimum inhibitory concentration, Sindbis virus (Sindbis virus): 1/60000; Antiviral activity IC50, AD-169 strain, Assay 1 [4]: <1/30; Antiviral activity IC50, Davis strain, Assay 1 [5]: 1/100; Cytotoxicity CC50 [6]: <1/30 |
| C[C@H]1[C@H](OC(=O)CCC(=O)O)O[C@@H]2O[C@@]3(C)CC[C@H]4[C@H](C)CC[C@@H]1[C@@]24OO3 [artesunate] |  |  |  |  |  | mouse lymphoma tk assay, screening design (mouse lymphoma tk): positive |
| CCN(CC)CCCC(C)Nc1ccnc2cc(Cl)ccc12 (stereo not shown) [Chloroquine, chloroquine] |  |  |  |  |  | mouse lymphoma tk assay, screening design (mouse lymphoma tk; with S9 mix): questionable negative |
| COc1ccc(/C=C/C(=O)c2ccc(O)cc2)c(OC)c1 [24m4′hc, 2,4-dimethoxy-4′hydroxychalcone] |  | No toxic effects | 48 ± 3 | 71 ± 5 | 11 |  |
| CCc1nc(N)nc(N)c1-c1ccc(Cl)cc1 [pyrimethamine] |  |  |  |  |  | mouse lymphoma tk assay, screening design (mouse lymphoma tk): negative |
| O=C(O)/C=C/C(=O)O [Fumarate] | concentration-dependent inhibitory effect |  |  |  |  |  |
| O=C(/C=C/c1ccccc1)c1ccc(O)cc1 [4′-OH, 4′-hydroxychalcone] |  | inconclusive effect | 16 ± 1 | 28 ± 1 | 21 |  |
